Assay results reported in patent publication US12396949B2, “Technology for improving properties of lipid nanoparticles using lipids in which cis-unsaturated bonds are substituted with a silicon atom” (The Regents of the University of California, priority 2022, dated 2025).
Where “and” joins values, the source holds several entries; their conditions need not be identical. Identical values can stand only once.

Columns and labels:
Assay type in all cases: physicochemical
RNA standard = test: RNA encapsulation efficiency, Quant-It RiboGreen fluorescence assay; conditions: for RNA EE (RNA encapsulation efficiency): RNA-lipid complex 10:1 wt/wt lipid/RNA, 15 min room temperature, three aliquots; for RNA EE compared with DOTAP: comparison in words
Experimental: (§1) FIGS. 8A, 8B, and 8C show the measured size, zeta potential, and RNA encapsulation efficiency (EE) of lipid nanoparticles (LNPs) containing silyl-DOTAP lipids, compared with traditional DOTAP-derived LNPs. The data in FIG. 8A were obtained from three liposome solutions, whereupon the average size was determined using dynamic light scattering (DLS). The data in FIG. 8B were obtained from three liposome solutions, whereupon the average zeta potential was determined using dynamic light scattering (DLS). The data in FIG. 8C represent RNA encapsulation efficiency, determined for each lipid using the Quant-It RiboGreen fluorescence assay.
The data in FIG. 8C represent RNA encapsulation efficiency. One RNA-lipid complex solution (10:1 wt/wt lipid/RNA) was formed for each lipid by incubating the silyl liposomes with RNA standard at room temperature for fifteen minutes. The average RNA EE of three aliquots of RNA-lipid complex solution was determined for each lipid using the Quant-It RiboGreen fluorescence assay.
(§2) The values shown are the average standard deviation size by intensity, zeta potential, and RNA EE shown in FIGS. 8A to 8C for each lipid. Footnotes: a: One trial corresponds to one liposome solution (1 mg/ml). […] DOTAP is 198 nm and 8SiPh is 183±65 nm when excluding this large aggregate/outlier.

[1] = Liposome zeta potential, dynamic light scattering (silyl-DOTAP liposomes); conditions: three liposome solutions, 1 mg/mL in Milli Q water, DLS
Experimental: as §1
(§3) FIGS. 8A, 8B, and 8C provide an analysis of size, zeta potential, and RNA encapsulation efficiency (EE) of lipid nanoparticles (LNPs) composed of silyl-DOTAP lipids, compared with traditional DOTAP-derived LNPs. The data in FIG. 8A were obtained from three liposome solutions (1 mg/mL in Milli Q water) for each lipid, which were formed via thin film hydration/bath sonication and the average size by intensity was determined using dynamic light scattering (DLS). The data in FIG. 8B were obtained from three liposome solutions (1 mg/mL in Milli Q water) for each lipid, which were formed via thin film hydration/bath sonication and the average zeta potential was determined using dynamic light scattering (DLS).
as §2

[2] = Liposome size by intensity, dynamic light scattering (silyl-DOTAP liposomes); conditions: for size (size by intensity, average ± standard deviation): three liposome solutions, thin film hydration/bath sonication, all trials; for size (size by intensity, average ± standard deviation) / size by intensity when excluding large aggregate/outlier: 1 mg/mL in Milli Q water; for size (size by intensity, average ± standard deviation) / size by intensity when excluding large aggregate/outlier / large aggregate/outlier in size by intensity distribution of one trial: DLS; for average LNP size compared with DOTAP: comparison in words; for size by intensity when excluding large aggregate/outlier: outlier trial peak excluded; for large aggregate/outlier in size by intensity distribution of one trial: one of three trials
Experimental: as §1, §3, §2

[3] = Average zeta potential of liposomes made from cationic silyl lipids (Tables 1A, 1B)
Description: (§4) For colloidal dispersions, zeta potential is a useful measurement of the difference in electrokinetic potential between the dispersion medium and the stationary layer of fluid attached to the dispersed particle. The magnitude of the zeta potential indicates the degree of electrostatic repulsion between adjacent, similarly charged particles in a dispersion. A high zeta potential is an indicator of stability (resistance to aggregation). Both zeta potential and size can be determined using a zeta Potential Analyzer. Clogston J D et al., Methods Mol Biol. 2011; 697:63-70.
(§5) FIGS. 5A to 5C and TABLE 1A provide an illustration of such empirical determination: the effect of the length of the lipid tail, the end group, and the positioning of the silyl group. In this illustration, other properties of the lipid structure and liposome composition were kept constant. The liposome formulations just contained the cationic silyl lipids indicated, and Milli Q™ purified water.
(§6) FIGS. 7A to 7C and TABLE 1B provide another illustration of how structure of the silyl lipid can affect properties of nanoparticles.
(§7) Structural features such as tail length, positioning of the silicon group (n1, n2), and branching (as in 8,Si, (8)3-DOTMA) can influence liposome properties.

[4] = Average size of liposomes made from cationic silyl lipids (Tables 1A, 1B); conditions: for Avg size: Table 1B, sila-DOTMA analog liposomes; for Avg. Size: Table 1A, liposome formulations of the cationic silyl lipid only in Milli Q purified water
Description: as §4, §5, §6, §7

[5] = Table 1B, sila-DOTMA analog liposomes, two values given
[6] = Table 1A, liposome formulations of the cationic silyl lipid only in Milli Q purified water

Row | Compound | RNA EE (RNA encapsulation efficiency) (RNA standard) [%] | zeta (average zeta potential ± standard deviation) [1] | size (size by intensity, average ± standard deviation) [2] [nm] | further results
1 | CCCCCCCC[Si](C)(C)CCCCC(=O)OCC(C[N+](C)(C)C)OC(=O)CCCC[Si](C)(C)CCCCCCCC (stereo not shown) [5Si8] | 74 ± 6 | 63 ± 14 mV | 171 ± 26 | RNA EE compared with DOTAP (RNA standard): higher EE than DOTAP
2 | CCCCCCCCCCC[Si](C)(C)CCCCC(=O)OCC(C[N+](C)(C)C)OC(=O)CCCC[Si](C)(C)CCCCCCCCCCC (stereo not shown) [5Si11] |  | 0 mV and 0 ± 0.05 mV | 225 ± 24 | RNA EE compared with DOTAP (RNA standard): comparable RNA EEs to DOTAP
3 | C[N+](C)(C)CC(COC(=O)CCCC[Si](C)(C)C1CCCCC1)OC(=O)CCCC[Si](C)(C)C1CCCCC1 (stereo not shown) [5SiCy] | 85 ± 4 | 88 ± 5 mV | 169 ± 1 | RNA EE compared with DOTAP (RNA standard): higher EE than DOTAP
4 | CCCC[Si](C)(C)CCCCCCOCC(C[N+](C)(C)C)OCCCCCC[Si](C)(C)CCCC (stereo not shown) [6, Si, 4-DOTMA] |  |  |  | Avg. zeta Potential [3, 5]: 65 mV; Avg size [4]: 79 nm
5 | CCCCCCCC[Si](C)(C)CCCCCCOCC(C[N+](C)(C)C)OCCCCCC[Si](C)(C)CCCCCCCC (stereo not shown) [6, Si, 8-DOTMA] |  |  |  | Avg. zeta Potential [3, 5]: 64 mV; Avg size [4]: 216 nm
6 | C[N+](C)(C)CC(COC(=O)CCCCC[Si](C)(C)C1CCCCC1)OC(=O)CCCCC[Si](C)(C)C1CCCCC1 (stereo not shown) [6SiCy] | 23 ± 0.2 | 77 ± 5 mV | 188 ± 16 | 
7 | CCCCCCCCC[Si](C)(C)CCCCCCC(=O)OCC(C[N+](C)(C)C)OC(=O)CCCCCC[Si](C)(C)CCCCCCCCC (stereo not shown) [7Si9] | 59 ± 1 | 73 ± 4 mV | 221 ± 40 | 
8 | CCCCCCCC[Si](C)(C)CCCCCCCCOCC(C[N+](C)(C)C)OCCCCCCCC[Si](C)(C)CCCCCCCC (stereo not shown) [8, Si, 8-DOTMA] |  |  |  | Avg. zeta Potential [3, 5]: 56 mV and 74 mV; Avg size [4]: 206 nm
9 | CCCCCCCC[Si](CCCCCCCC)(CCCCCCCC)CCCCCCCCOCC(C[N+](C)(C)C)OCCCCCCCC[Si](CCCCCCCC)(CCCCCCCC)CCCCCCCC (stereo not shown) [8, Si, (8)3-DOTMA] |  |  |  | Avg. zeta Potential [3, 5]: 64 mV; Avg size [4]: 184 nm
10 | C[N+](C)(C)CC(COCCCCCCCC[Si](C)(C)c1ccccc1)OCCCCCCCC[Si](C)(C)c1ccccc1 (stereo not shown) [8, Si, Ph-DOTMA] |  |  |  | Avg. zeta Potential [3, 5]: 62 mV; Avg size [4]: 215 nm
11 | CCCCCC[Si](C)(C)CCCCCCCC(=O)OCC(C[N+](C)(C)C)OC(=O)CCCCCCC[Si](C)(C)CCCCCC (stereo not shown) [8Si6] | 48 ± 1 | 84 ± 5 mV | 164 ± 36 | 
12 | CCCCCCCC[Si](C)(C)CCCCCCCC(=O)OCC(C[N+](C)(C)C)OC(=O)CCCCCCC[Si](C)(C)CCCCCCCC (stereo not shown) [8Si8] | 50 ± 7 | 73 ± 15 mV | 221 ± 40 | RNA EE compared with DOTAP (RNA standard): comparable RNA EEs to DOTAP
13 | C[N+](C)(C)CC(COC(=O)CCCCCCC[Si](C)(C)C1CCCCC1)OC(=O)CCCCCCC[Si](C)(C)C1CCCCC1 (stereo not shown) [8SiCy] | 49 ± 4 | 70 ± 3 mV | 199 ± 30 | 
14 | CCCCCC[Si](C)(C)CCCCCCCCCCOCC(C[N+](C)(C)C)OCCCCCCCCCC[Si](C)(C)CCCCCC (stereo not shown) [10, Si, 6-DOTMA] |  |  |  | Avg. zeta Potential [3, 5]: 52 mV; Avg size [4]: 65 nm
15 | CCCCCCCC/C=C\CCCCCCCC(=O)OCC(C[N+](C)(C)C)OC(=O)CCCCCCC/C=C\CCCCCCCC.[Cl-] (stereo not shown) [DOTAP, N-(1-(2,3-dioleoyloxy)propyl)-N,N,N-trimethylammonium chloride, reference compound] | 65 ± 2 | 34 ± 5 mV | 314 ± 201 | size by intensity when excluding large aggregate/outlier [2]: 198 nm; large aggregate/outlier in size by intensity distribution of one trial [2]: 838.3 nm
16 | CCCC[Si](C)(C)CCCCC(=O)OCC(C[N+](C)(C)C)OC(=O)CCCC[Si](C)(C)CCCC (stereo not shown) [QP5Si4] |  |  |  | Avg. zeta Potential [3, 6]: 65 mV; Avg. Size [4]: 21 nm
17 | CCCCCCCC[Si](C)(C)CCCCC(=O)OCC(C[N+](C)(C)C)OC(=O)CCCC[Si](C)(C)CCCCCCCC (stereo not shown) [QP5Si8] |  |  |  | Avg. zeta Potential [3, 6]: 69 mV and 112 mV; Avg. Size [4]: 38 nm
18 | CCCCCCCCCCC[Si](C)(C)CCCCC(=O)OCC(C[N+](C)(C)C)OC(=O)CCCC[Si](C)(C)CCCCCCCCCCC (stereo not shown) [QP5Si11] |  |  |  | Avg. zeta Potential [3, 6]: 60 mV; Avg. Size [4]: 59 nm
19 | C[N+](C)(C)CC(COC(=O)CCCC[Si](C)(C)C1CCCCC1)OC(=O)CCCC[Si](C)(C)C1CCCCC1 (stereo not shown) [QP5SiCy] |  |  |  | Avg. zeta Potential [3, 6]: 71 mV and 124 mV; Avg. Size [4]: 80 nm

Second part, led by results:

Row | RNA EE (RNA encapsulation efficiency) (RNA standard) [%] | zeta (average zeta potential ± standard deviation) [1] | size (size by intensity, average ± standard deviation) [2] [nm] | Compound | further results
20 | 55 ± 4 | 76 ± 2 mV | 198 | C[N+](C)(C)CC(COC(=O)CCCC[Si](C)(C)CCc1ccccc1)OC(=O)CCCC[Si](C)(C)CCc1ccccc1 (stereo not shown) [5Si2Ph] | 
21 | 55 ± 3 | 78 ± 3 mV | 208 ± 19 | C[N+](C)(C)CC(COC(=O)CCCC[Si](C)(C)CCCc1ccccc1)OC(=O)CCCC[Si](C)(C)CCCc1ccccc1 (stereo not shown) [5Si3Ph] | 
22 | 88 ± 9 | 77 ± 6 mV | 226 ± 75 | C[N+](C)(C)CC(COC(=O)CCCC[Si](C)(C)c1ccccc1)OC(=O)CCCC[Si](C)(C)c1ccccc1 (stereo not shown) [5SiPh] | RNA EE compared with DOTAP (RNA standard): higher EE than DOTAP
23 | 41 ± 6 | 91 ± 9 mV | 372 ± 93 | CCCC[Si](C)(C)CCCCCC(=O)OCC(C[N+](C)(C)C)OC(=O)CCCCC[Si](C)(C)CCCC (stereo not shown) [6Si4] | average LNP size compared with DOTAP [2]: noticeably larger average sizes than DOTAP
24 | 76 ± 1 | 81 ± 3 mV | 448 ± 110 | C[N+](C)(C)CC(COC(=O)CCCCC[Si](C)(C)c1ccccc1)OC(=O)CCCCC[Si](C)(C)c1ccccc1 (stereo not shown) [6SiPh] | RNA EE compared with DOTAP (RNA standard): higher EE than DOTAP; average LNP size compared with DOTAP [2]: noticeably larger average sizes than DOTAP
25 | 56 ± 10 | 61 ± 12 mV | 275 ± 82 | C[N+](C)(C)CC(COC(=O)CCCCCCC[Si](C)(C)CCc1ccccc1)OC(=O)CCCCCCC[Si](C)(C)CCc1ccccc1 (stereo not shown) [8Si2Ph] | 
26 | 53 ± 8 | 91 ± 6 mV | 106 ± 35 | C[N+](C)(C)CC(COC(=O)CCCCCCC[Si](C)(C)CCCc1ccccc1)OC(=O)CCCCCCC[Si](C)(C)CCCc1ccccc1 (stereo not shown) [8Si3Ph] | 
27 | 44 ± 7 | 70 ± 2 mV | 198 | CCCC[Si](C)(C)CCCCCCCC(=O)OCC(C[N+](C)(C)C)OC(=O)CCCCCCC[Si](C)(C)CCCC (stereo not shown) [8Si4] | 
28 | 36 ± 5 | 75 ± 6 mV | 397 ± 322 | C[N+](C)(C)CC(COC(=O)CCCCCCC[Si](C)(C)c1ccccc1)OC(=O)CCCCCCC[Si](C)(C)c1ccccc1 (stereo not shown) [8SiPh] | size by intensity when excluding large aggregate/outlier [2]: 183±65 nm; large aggregate/outlier in size by intensity distribution of one trial [2]: 1406 nm
